# Measured values taken from the supplement of paper PMC10307832.
# Key:
# Assay in all cases: relative viability (nuclei count vs DMSO), 5 days (fraction); higher = more cells survive
# NCI-H441 = system: NCI-H441
# Procedure, shortened: (§1)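 Nuclei were stained with Hoechst during a one-step fixation (final 0.05% Triton X-100, 1% formaldehyde, 1 ug/ml Hoechst) carried out 5 days after dosing, then counted on 4× images. The cells, lung cancer lines in 1536-well plates, had been dosed by pin tool the day after seeding with one drug alone or a fixed anchor-drug dose plus five library-drug doses (not always all listed) in √10 steps. Relative viability is the nuclei count in treated wells divided by that in vehicle wells, and each value is the median of duplicate plates.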
# H3255 = system: H3255
# Procedure, shortened: as §1
# NCI-H2342 = system: NCI-H2342
# Procedure, shortened: as §1
# EKVX = system: EKVX
# Procedure, shortened: as §1
# SK-MES-1 = system: SK-MES-1
# Procedure, shortened: as §1
# NCI-H2085 = system: NCI-H2085
# Procedure, shortened: as §1
# CAL-12T = system: CAL-12T
# Procedure, shortened: as §1
# NCI-H2087 = system: NCI-H2087
# Procedure, shortened: as §1
# NCI-H1993 = system: NCI-H1993
# Procedure, shortened: as §1
# COR-L 105 = system: COR-L 105
# Procedure, shortened: as §1
# HCC-827 = system: HCC-827
# Procedure, shortened: as §1
# NCI-H1792 = system: NCI-H1792
# Procedure, shortened: as §1
# ABC-1 = system: ABC-1
# Procedure, shortened: as §1
# NCI-H1355 = system: NCI-H1355
# Procedure, shortened: as §1
# NCI-H2009 = system: NCI-H2009
# Procedure, shortened: as §1
# EPLC-272H = system: EPLC-272H
# Procedure, shortened: as §1
# NCI-H1975 = system: NCI-H1975
# Procedure, shortened: as §1
# NCI-H2228 = system: NCI-H2228
# Procedure, shortened: as §1
# HCC-366 = system: HCC-366
# Procedure, shortened: as §1
# ChaGo-K-1 = system: ChaGo-K-1
# Procedure, shortened: as §1
# NCI-H460 = system: NCI-H460
# Procedure, shortened: as §1
# NCI-H322M = system: NCI-H322M
# Procedure, shortened: as §1
smiles,measurement,setting,value
Cc1cn(-c2cc(NC(=O)c3ccc(C)c(Nc4nccc(-c5cccnc5)n4)c3)cc(C(F)(F)F)c2)cn1 [Nilotinib] + COc1cccc2cc(-c3nc([C@H]4CC[C@H](C(=O)O)CC4)n4ncnc(N)c34)[nH]c12 [OSI-027] (partner 0.5 µM),relative viability,NCI-H441; first compound 0.001 µM,0.524
same,relative viability,NCI-H441; first compound 0.003162 µM,0.743
same,relative viability,NCI-H441; first compound 0.01 µM,0.52
same,relative viability,NCI-H441; first compound 0.03162 µM,0.499
same,relative viability,NCI-H441; first compound 0.1 µM,0.483
same,relative viability,H3255; first compound 0.001 µM,0.547
same,relative viability,H3255; first compound 0.003162 µM,0.566
same,relative viability,H3255; first compound 0.03162 µM,0.501
same,relative viability,H3255; first compound 0.1 µM,0.621
same,relative viability,NCI-H2342; first compound 0.001 µM,0.605
same,relative viability,NCI-H2342; first compound 0.003162 µM,0.618
same,relative viability,NCI-H2342; first compound 0.01 µM,0.558
same,relative viability,NCI-H2342; first compound 0.03162 µM,0.536
same,relative viability,NCI-H2342; first compound 0.1 µM,0.518
same,relative viability,EKVX; first compound 0.001 µM,0.541
same,relative viability,EKVX; first compound 0.003162 µM,0.719
same,relative viability,EKVX; first compound 0.01 µM,0.904
same,relative viability,EKVX; first compound 0.03162 µM,0.665
same,relative viability,EKVX; first compound 0.1 µM,0.671
same,relative viability,SK-MES-1; first compound 0.001 µM,0.474
same,relative viability,SK-MES-1; first compound 0.003162 µM,0.544
same,relative viability,SK-MES-1; first compound 0.01 µM,0.662
same,relative viability,SK-MES-1; first compound 0.03162 µM,0.342
same,relative viability,SK-MES-1; first compound 0.1 µM,0.327
same,relative viability,NCI-H2085; first compound 0.001 µM,0.695
same,relative viability,NCI-H2085; first compound 0.003162 µM,0.549
same,relative viability,NCI-H2085; first compound 0.01 µM,0.699
same,relative viability,NCI-H2085; first compound 0.03162 µM,0.428
same,relative viability,NCI-H2085; first compound 0.1 µM,0.467
same,relative viability,CAL-12T; first compound 0.001 µM,0.612
same,relative viability,CAL-12T; first compound 0.003162 µM,0.413
same,relative viability,CAL-12T; first compound 0.01 µM,0.426
same,relative viability,CAL-12T; first compound 0.03162 µM,0.427
same,relative viability,CAL-12T; first compound 0.1 µM,0.527
same,relative viability,NCI-H2087; first compound 0.001 µM,0.477
same,relative viability,NCI-H2087; first compound 0.003162 µM,0.557
same,relative viability,NCI-H2087; first compound 0.01 µM,0.499
same,relative viability,NCI-H2087; first compound 0.03162 µM,0.221
same,relative viability,NCI-H2087; first compound 0.1 µM,0.239
same,relative viability,NCI-H1993; first compound 0.001 µM,0.547
same,relative viability,NCI-H1993; first compound 0.003162 µM,0.551
same,relative viability,NCI-H1993; first compound 0.01 µM,0.536
same,relative viability,NCI-H1993; first compound 0.03162 µM,0.487
same,relative viability,NCI-H1993; first compound 0.1 µM,0.562
same,relative viability,COR-L 105; first compound 0.001 µM,0.831
same,relative viability,COR-L 105; first compound 0.003162 µM,0.683
same,relative viability,COR-L 105; first compound 0.01 µM,0.741
same,relative viability,COR-L 105; first compound 0.03162 µM,0.577
same,relative viability,COR-L 105; first compound 0.1 µM,0.586
same,relative viability,HCC-827; first compound 0.003162 µM,0.822
same,relative viability,HCC-827; first compound 0.01 µM,0.85
same,relative viability,HCC-827; first compound 0.03162 µM,0.603
same,relative viability,NCI-H1792; first compound 0.001 µM,0.503
same,relative viability,NCI-H1792; first compound 0.003162 µM,0.473
same,relative viability,NCI-H1792; first compound 0.01 µM,0.667
same,relative viability,NCI-H1792; first compound 0.1 µM,0.555
same,relative viability,ABC-1; first compound 0.001 µM,0.447
same,relative viability,ABC-1; first compound 0.003162 µM,0.479
same,relative viability,ABC-1; first compound 0.01 µM,0.45
same,relative viability,ABC-1; first compound 0.03162 µM,0.376
same,relative viability,ABC-1; first compound 0.1 µM,0.237
same,relative viability,NCI-H1355; first compound 0.001 µM,0.384
same,relative viability,NCI-H1355; first compound 0.003162 µM,0.388
same,relative viability,NCI-H1355; first compound 0.01 µM,0.324
same,relative viability,NCI-H1355; first compound 0.03162 µM,0.314
same,relative viability,NCI-H1355; first compound 0.1 µM,0.329
same,relative viability,NCI-H2009; first compound 0.001 µM,0.486
same,relative viability,NCI-H2009; first compound 0.003162 µM,0.624
same,relative viability,NCI-H2009; first compound 0.01 µM,0.765
same,relative viability,NCI-H2009; first compound 0.03162 µM,0.556
same,relative viability,NCI-H2009; first compound 0.1 µM,0.357
same,relative viability,EPLC-272H; first compound 0.001 µM,0.24
same,relative viability,EPLC-272H; first compound 0.003162 µM,0.275
same,relative viability,EPLC-272H; first compound 0.01 µM,0.325
same,relative viability,EPLC-272H; first compound 0.03162 µM,0.246
same,relative viability,EPLC-272H; first compound 0.1 µM,0.177
same,relative viability,NCI-H1975; first compound 0.001 µM,0.598
same,relative viability,NCI-H1975; first compound 0.003162 µM,0.53
same,relative viability,NCI-H1975; first compound 0.01 µM,0.149
same,relative viability,NCI-H1975; first compound 0.03162 µM,0.409
same,relative viability,NCI-H1975; first compound 0.1 µM,0.32
same,relative viability,NCI-H2228; first compound 0.003162 µM,0.631
same,relative viability,NCI-H2228; first compound 0.01 µM,0.588
same,relative viability,NCI-H2228; first compound 0.03162 µM,0.449
same,relative viability,NCI-H2228; first compound 0.1 µM,0.217
same,relative viability,HCC-366; first compound 0.001 µM,0.644
same,relative viability,HCC-366; first compound 0.003162 µM,0.93
same,relative viability,HCC-366; first compound 0.01 µM,0.663
same,relative viability,HCC-366; first compound 0.03162 µM,0.203
same,relative viability,HCC-366; first compound 0.1 µM,0.147
same,relative viability,ChaGo-K-1; first compound 0.001 µM,0.49
same,relative viability,ChaGo-K-1; first compound 0.003162 µM,0.643
same,relative viability,ChaGo-K-1; first compound 0.01 µM,0.485
same,relative viability,ChaGo-K-1; first compound 0.03162 µM,0.471
same,relative viability,ChaGo-K-1; first compound 0.1 µM,0.274
same,relative viability,NCI-H460; first compound 0.001 µM,0.367
same,relative viability,NCI-H460; first compound 0.003162 µM,0.2
same,relative viability,NCI-H460; first compound 0.01 µM,0.327
same,relative viability,NCI-H460; first compound 0.03162 µM,0.255
same,relative viability,NCI-H460; first compound 0.1 µM,0.0921
same,relative viability,NCI-H322M; first compound 0.001 µM,0.516
same,relative viability,NCI-H322M; first compound 0.003162 µM,0.436
same,relative viability,NCI-H322M; first compound 0.01 µM,0.422
same,relative viability,NCI-H322M; first compound 0.03162 µM,0.384
same,relative viability,NCI-H322M; first compound 0.1 µM,0.481
